A short description of data set [1]: treatment of premenstrual syndrome and/or premenstrual dysphoric disorder (reduction of symptoms). The class given is in vivo. The settings on record: compared with other compounds, particularly other magnesium salts (like magnesium oxide).
A short description of data set [2]: stability over time of dihydrate versus anhydrous form. The class given is physicochemical. The settings on record: compared to non-dihydrate (anhydrous) magnesium N-acetyl-taurinate.

Data on two substances can be found in US12383520B2, “Compound and composition for use in the treatment of premenstrual syndrome and/or premenstrual dysphoric disorder” (SYNAPHARM […], priority 2019, dated 2025).

In the case of magnesium N-acetyl-taurinate, in data set [1], the “effectiveness (reduction of symptoms) in the treatment of premenstrual syndrome and/or premenstrual dysphoric disorder” value is on record as “more effective (reduction of symptoms) than the other compounds”. In the case of magnesium N-acetyl-taurinate dihydrate, the stability over time entry in data set [2] is on record as “increased as compared to non-dihydrate magnesium N-acetyl-taurinate”.
